The text below walks through data of US6608082B1, “Treatment of erectile dysfunction using isoquinoline compound melanocortin receptor ligands” (Lion Bioscience AG, priority 1998, dated 2003).

Assay [1] addresses T1, MCR-4 (Homo sapiens, UniProt P32245).
T1 construct: expressed in transfected cells; host or cells: HEK 293
Nature of the assay: cAMP assay for melanocortin receptors, HEK 293 cells expressing MCR-4. The format is cell-based. Particulars: for EC50: read-out: MC-4 EC50 (cAMP); for MC-4 Max (pmole) cAMP produced: maximum amount of cAMP. As for the experimental part:
HEK 293 cells expressing MCR-1, MCR-3, MCR-4 and MCR-5 were used (see Example II). Cells were plated at 20,000 cells per well in a 96-well plate coated with collagen. The next day, cells were pretreated with 75 μl of 0.4 mM 3-isobutyl-1-methylxanthine (IBMX) in low serum medium containing DMEM, 25 mM HEPES, non-essential amino acids, vitamins, 100 units/ml penicillin, 100 μg/ml streptomycin and 0.1% COSMIC CALF SERUM. IBMX is an inhibitor of cAMP phosphodiesterase. The pretreatment was carried out for 10 min at 37° C.
Following pretreatment, 25 μl of diluted isoquinoline compound was added to the wells, and cells were incubated for 15 min at 37° C. Cells were lysed by adding 25 μl saponin lysis buffer and incubating 2 to 5 min. Plates were covered and stored at −20° C.
cAMP concentration was determined by ELISA. Briefly, 96 well ELISA plates were coated with goat anti-cAMP antibody in PBS for 12 to 72 hr at 4° C. 50 μl of sample was mixed with 50 μl of cAMP ELISA buffer containing 1% bovine serum albumin, 10% heat-inactivated donor horse serum, 1% normal mouse serum and 0.05% TWEEN-20 in PBS, and the diluted sample was added to the coated ELISA plate. Standards of known concentrations of cAMP were added to separate wells. 25 μl of 16 ng/ml cAMP-conjugated horse radish peroxidase (HRP) (cAMP-HRP) was added to each well, and the plates were […] at room temperature. Plates were washed and the binding of cAMP-HRP was detected with 3,3′,5,5′-tetramethylbenzidine (TMB) and hydrogen peroxide using standard immunoassay procedures.
Various isoquinoline compounds were tested for their ability to activate MC receptor by measuring cAMP as described in Example III.

For assay [2], the target named is T1, MCR-4. Nature of the assay: Melanocortin receptor binding assay, competition with 125I-HP 467, HEK 293 cells expressing hMCR-4. Particulars: read-out: MC-4 IC50. The method in brief: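 Intact-cell competition binding, 2.5 hr at 37 °C, in PBS/10% calf serum/1 mM CaCl2; hMCR-4 cells at 4×10^3 per tube, hMCR-1 cells at 2×10^4 per tube. Filtration on BSA/CaCl2-soaked GF/B, cold 50 mM Tris pH 7.4 washes, scintillation count.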

Assay [3] deals with arachidonic acid induced dermal inflammation. Nature of the assay: Arachidonic acid induced dermal inflammation (ear thickness). The format is in vivo, Female BALB/c mice. Particulars: for inflammation in response to arachadonic acid administration: mouse, in vivo; for reduction in the level of arachidonic acid-induced dermal inflammation: intraperitoneally, TRG 2409-2 or TRG 2409-14 100 or 300 μg/mouse, FIG. 5. As for the experimental part:
Female BALB/c mice (17-22 g) were used and administered the test isoquinoline compounds or positive control compounds 30 to 60 min prior to topical application of arachidonic acid. Indomethacin and HP 228 were used as positive controls. Compounds were administered orally (p.o.) or intraperitoneally (i.p.). Initial ear thickness (left and right) was measured using spring loaded micro-calipers. Arachidonic acid was applied to mice anesthetized with a cocktail of ketamine/xylazine (7.0 mg/ml and 0.6 mg/ml, respectively) administered i.p. (300 μl/mouse). Utilizing a micro-pipette, 20 μl of arachidonic acid solution (100 mg/ml ethanol or acetone) was applied to the right ear (10 μl to inner and 10 μl to outer surfaces of […] for a total of 2 mg arachidonic acid per right ear), and 20 μl of vehicle (ethanol or acetone) was applied to the left ear. Mice were returned to their cages to recover. Mice were again anesthetized 50 min after arachidonic acid application and their ears measured.
Dermal inflammation was determined by subtracting the difference of the vehicle treated left ear (L60−L0) from the difference of the arachidonic acid treated right ear (R60−R0). Ear thickness measurements were averaged for each group, and the responses in the vehicle treated control group (Cr; saline or PBS) were subtracted from the response noted in the isoquinoline compound treated group (Tr) to give the relative inflammatory response for each treatment group compared to the control group. The percent inhibition is defined by the equation: % inhibition=(Cr−Tr)/(Cr)×100.

The nature of assay [4]: Body weight and food consumption after i.p. administration. The format is in vivo, Sprague-Dawley rats. Particulars: for reducing body weight and food consumption: rat, in vivo; for food consumption / weight gain / body weight relative to control: rats, 5 mg/kg i.p.; for food consumption / weight gain: 18 hours after injection, FIG. 6; for body weight relative to control: at 9 hours as well as 18 hours, FIG. 7. The source says:
Adult male Sprague-Dawley rats (175-225 g) were used to assess the effect of isoquinoline compounds on food uptake and body weight. Baseline body weight and food consumption measurements were taken for 3 days prior to start of the study (Day 0). On Day −1, the food was taken away from the animals at 5:00 PM. The next morning (Day 0), body weight measurements were taken, and the animals were divided into treatment groups with 6 animals in each group. The treatment groups were saline control, HP 228 positive control and test isoquinoline compounds. Saline was administered i.p. at 1 ml/kg. HP 228 and test isoquinoline compounds were administered i.p. at 5 mg/kg. The injections were initiated at 2:00 PM on Day 0.
Body weight and food consumption measurements were taken at 9 hr (Day 0; 11:00 PM) and at 18 hr (Day 1, 8:00 AM) after injection. At the end of the study, all evaluated parameters (9 and 18 hour body weight and food consumption) were analyzed by standard statistical methods. Significance (P<0.05) was determined by one-way ANOVA, ANOVA for repeated measures, or Student's t-test.
The level of reduction was similar to that seen with HP 228.

[5] abbreviates: 100 μg/mouse administered intraperitoneally, FIG. 4.
Setting [6] is: TRG 2408 and TRG 2409 libraries, inhibition of 125I-HP 467 binding.
[7] abbreviates: competition with 125I-HP 467, HEK 293 cells expressing MCR-4.

Like-named read-outs stand apart in the source and are kept apart here. Where only a bound is given, the exact number is not on record here.

T1 sequence (P32245 whole entry): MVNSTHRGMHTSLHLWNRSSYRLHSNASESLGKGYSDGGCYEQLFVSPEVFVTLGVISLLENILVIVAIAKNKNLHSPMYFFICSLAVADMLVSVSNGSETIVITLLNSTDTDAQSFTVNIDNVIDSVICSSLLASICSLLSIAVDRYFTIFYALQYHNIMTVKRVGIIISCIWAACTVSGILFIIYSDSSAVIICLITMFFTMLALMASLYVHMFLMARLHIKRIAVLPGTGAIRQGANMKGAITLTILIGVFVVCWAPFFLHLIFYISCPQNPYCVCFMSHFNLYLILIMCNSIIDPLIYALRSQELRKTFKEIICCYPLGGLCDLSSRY

In general, EC50 refers to the concentration needed to bring the measured effect to its halfway point. The IC50 is the concentration at which inhibition is half-maximal. With `CNC(CN)CN1Cc2ccccc2C(CNC2CCCCC2)C1c1ccc(O)cc1` (stereo not shown) [TRG 2405-156], in assay [1], the EC50 was over 50 µM. Besides, the IC50 in assay [2] (TRG 2405 section, inhibition of binding of 125I-HP 467, HEK 293 cells expressing MCR-4) stood at 20.6 µM.

`CNC(CN)CCCCN1Cc2ccccc2C(CNC2CCCCC2)C1c1ccc(Cl)cc1Cl` (stereo not shown) [TRG 2405-190]: the “inhibition of arachidonic acid induced dermal inflammation” value (from here on “inhibition”) in assay [3] (setting [5]) is listed as “inhibition of arachidonic acid induced dermal inflammation”. In addition, the “inflammation in response to arachadonic acid administration” value (“inflammation in response” below) in assay [3] is recorded as “reduced inflammation”. Also, in assay [1], the “MC-4 Max (pmole) cAMP produced” value came out at 100.48 pmol and the EC50 is 46.3 µM. Further, in assay [4], the “reducing body weight and food consumption” value is “particularly effective at reducing body weight and food consumption”; the food consumption result is “significant decrease”; the weight gain entry was “significant decrease”.

`CNC(CN)CCCCN1Cc2ccccc2C(CNC2CCCCC2)C1c1ccc(N(C)C)cc1` (stereo not shown) [TRG 2405-235]: the EC50 in assay [1] was over 50 µM.

In the case of `CNC(CN)CCCCN1Cc2ccccc2C(CNC2CCCCC2)C1c1ccc(C(F)(F)F)cc1` (stereo not shown) [TRG 2405-238], the EC50 in assay [1] was over 50 µM.

In the case of `CCNc1ccc(C2C(CNC3CCCCC3)c3ccccc3CN2CCCCC(CN)NC)cc1` (stereo not shown) [TRG 2405-239], the 50% effective concentration (EC50) in assay [1] is over 50 µM.

Turning to `CNC(CN)CCCCN1Cc2ccccc2C(CNC2CCCCC2)C1c1ccc(-c2ccccc2)cc1` (stereo not shown) [TRG 2405-241], the “inhibition” value in assay [3] (setting [5]) is “inhibition of arachidonic acid induced dermal inflammation”. Moreover, the “inhibition” value in assay [3] (administered intraperitoneally, TRG 2405-241 300 μg/mouse, HP 228 100 μg/mouse, FIG. 3) is “comparable to that seen with HP 228”. In assay [3] (administered orally, TRG 2405-241 600 μg/mouse, indomethacin 1 mg/mouse, FIG. 2), the “inhibition” value is given as “comparable to that seen with indomethacin”. In addition, the “inflammation in response” value in assay [3] is on record as “reduced inflammation”. In addition, in assay [1], the “MC-4 Max (pmole) cAMP produced” value amounted to 32.32 pmol and the 50% effective concentration (EC50) amounted to 28.5 µM. In addition, in assay [4], the “reducing body weight and food consumption” value was “particularly effective at reducing body weight and food consumption”; the food consumption result is reported as “significant decrease”; the weight gain result was “significant decrease”.

Take `CNC(CN)CCCCN1Cc2ccccc2C(CNC2CCCCC2)C1c1ccc(Br)cc1` (stereo not shown) [TRG 2405-242]: the half-maximal effective concentration (EC50) in assay [1] is over 50 µM.

On to `CNC(CN)CCCCN1Cc2ccccc2C(CNC2CCCCC2)C1c1ccc(O)cc1` (stereo not shown) [TRG 2405-246], for which the EC50 in assay [1] was over 50 µM.

With `CNC(CN)CCCCN1Cc2ccccc2C(CNC2CCCCC2)C1c1ccc(Oc2ccccc2)cc1` (stereo not shown) [TRG 2405-252], the “inhibition” value in assay [3] (setting [5]) is “inhibition of arachidonic acid induced dermal inflammation”. For the same molecule, in assay [3], the “inflammation in response” value was “reduced inflammation”. For the same molecule, in assay [1], the “MC-4 Max (pmole) cAMP produced” value came out at 39.24 pmol and the EC50 was 18.5 µM. In addition, in assay [4], the “reducing body weight and food consumption” value is “particularly effective at reducing body weight and food consumption”; the “body weight relative to control” value was “significant differences”.

As for `CCCOc1ccc(C2C(CNC3CCCCC3)c3ccccc3CN2CCCCC(CN)NC)cc1` (stereo not shown) [TRG 2405-253], in assay [3] (setting [5]), the “inhibition” value is “inhibition of arachidonic acid induced dermal inflammation”. Moreover, the “inflammation in response” value in assay [3] was “reduced inflammation”. For the same molecule, in assay [1], the “MC-4 Max (pmole) cAMP produced” value was 69.11 pmol and the EC50 worked out at 16.6 µM. Besides, in assay [4], the “reducing body weight and food consumption” value is “particularly effective at reducing body weight and food consumption”; the “body weight relative to control” value is given as “significant differences”.

As for `CNC(CN)CCCCN1Cc2ccccc2C(CNC2CCCCC2)C1c1ccc2cccc(O)c2n1` (stereo not shown) [TRG 2405-262], in assay [1], the concentration giving a half-maximal response (EC50) is over 50 µM.

On to `CNC(CN)CCCCN1Cc2ccccc2C(CN)C1c1ccc(Cl)cc1Cl` (stereo not shown) [TRG 2407-39], for which, in assay [2] (TRG 2406 and TRG 2407 libraries, inhibition of binding of 125I-HP 467), the concentration for half-maximal inhibition (IC50) stood at 0.11 µM.

With `CCNc1ccc(C2C(CNC3CCCCC3)c3ccccc3CN2CCCCC(CN)NC)cc1` (stereo not shown) [TRG 2408-30], the half-maximal inhibitory concentration (IC50) in assay [2] (setting [6]) worked out at 45.6 µM.

As to `CCNc1ccc(C2C(CNCc3ccccc3O)c3ccccc3CN2CCCC(CN)NCCc2ccccc2)cc1` (stereo not shown) [TRG 2408-57], the half-inhibitory concentration (IC50) in assay [2] (setting [6]) came out at 6.02 µM.

As for `CCNc1ccc(C2C(CNC3CCCCC3)c3ccccc3CN2CCCC(CN)NCCc2ccccc2)cc1` (stereo not shown) [TRG 2408-62], the IC50 in assay [2] (setting [6]) amounted to 2.61 µM.

`CCCCNc1ccc(C2C(CNCc3ccccc3O)c3ccccc3CN2CCCCC(CN)NC)cc1` (stereo not shown) [TRG 2409-2]: the “reduction in the level of arachidonic acid-induced dermal inflammation” value in assay [3] (HP 228 100 μg/mouse) is recorded as “dose dependent reduction in the level of arachidonic acid-induced dermal inflammation”. Besides, the “inflammation in response” value in assay [3] is “reduced inflammation”. Besides, in assay [2] (setting [7]), the 50% inhibitory concentration (IC50) turned out to be 10.7 µM.

In the case of `CCCCNc1ccc(C2C(CNC3CCCCC3)c3ccccc3CN2CCCCC(CN)NC)cc1` (stereo not shown) [TRG 2409-14], the “reduction in the level of arachidonic acid-induced dermal inflammation” value in assay [3] (HP 228 100 μg/mouse) is reported as “decreased dermal inflammation to a lesser extent than TRG 2409-2”. Moreover, the “inflammation in response” value in assay [3] is recorded as “reduced inflammation”. Also, the IC50 in assay [2] (setting [7]) is 15.1 µM.
